Consider one compound from paper PMC10974533, “Cationicity Enhancement on the Hydrophilic Face of Ctriporin Significantly Reduces Its Hemolytic Activity and Improves the Antimicrobial Activity against Antibiotic-Resistant ESKAPE Pathogens” (Toxins, 2024).

The test system of data set [1] is human red blood cells (hRBC). The data set is described as follows: Hemolytic activity determination. The class given is cell-based. Particulars: 256 μg/mL peptide, 2% (v/v) hRBC, 37 °C, 1 h, OD540, 1% Triton X-100 = 100%; average ± standard error of three independent experiments. Put shortly: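 Washed citrate-anticoagulated human erythrocytes, 2% (v/v) final, were incubated with peptide at 0–512 μg/mL for 1 h at 37 °C. Haemoglobin release was read at OD540, normalized to saline (0%) and 1% Triton X-100 (100%). Mean ± SE of three independent experiments.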

A further data set relates to standard ESKAPE strains. The class given is cell-based. The settings on record: broth dilution (CLSI), MHB. Put shortly: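 CLSI broth dilution MIC in Mueller–Hinton broth, 5 × 10^5 CFU/mL mid-growth-phase cells, peptides at 1, 2, 4, 8, 16, 32 and 64 μg/mL, 37 °C. Standard ATCC strains; repeated at least three times.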

Where a SMILES comes first, the peptide text is derived from it. A value given as a limit tells only on which side of the number the result lay.

Take `CC[C@H](C)[C@H](NC(=O)[C@H](C)NC(=O)CNC(=O)[C@@H]1CCCN1C(=O)[C@@H](NC(=O)[C@H](CC(C)C)NC(=O)CNC(=O)[C@H](Cc1c[nH]c2ccccc12)NC(=O)[C@H](CC(C)C)NC(=O)[C@@H](N)Cc1ccccc1)[C@@H](C)CC)C(=O)N[C@@H](CO)C(=O)N[C@@H](C)C(=O)N[C@H](C(=O)N[C@H](C(=O)N[C@@H](CO)C(=O)N[C@@H](CC(C)C)C(=O)N[C@H](C(=O)N[C@@H](CCCCN)C(=O)N[C@@H](CCCCN)C(N)=O)[C@@H](C)CC)[C@@H](C)O)C(C)C` [Ctriporin] (H-FLWGLIPGAISAVTSLIKK-NH2; N-terminus assumed): the “Hemolysis% at 256 μg/mL” value in data set [1] is listed as 90.6 ± 11.8%. The “MICs against S. aureus and A. baumannii” value in the data set on standard ESKAPE strains (standard strains of S. aureus and A. baumannii) is 16 to 32 µg/mL. Moreover, the “MICs for other tested bacterial species” value in the data set with standard ESKAPE strains (standard strains other than S. aureus and A. baumannii) was at least 64 µg/mL.
